Activity calls are given as the source filed them. The rule behind the calls is not given here.
What was measured:
[1] = molecular target: 4-aminobutyrate aminotransferase, mitochondrial (Homo sapiens) (UniProt P80404); test: Inhibition of GABA-AT at 1.7 mM
[2] = molecular target: 4-aminobutyrate aminotransferase, mitochondrial (Homo sapiens) (UniProt P80404); test: Inhibition of GABA-AT at 10 mM assessed as residual activity

4-aminobutyrate aminotransferase, mitochondrial (Homo sapiens), sequence (P80404 whole entry): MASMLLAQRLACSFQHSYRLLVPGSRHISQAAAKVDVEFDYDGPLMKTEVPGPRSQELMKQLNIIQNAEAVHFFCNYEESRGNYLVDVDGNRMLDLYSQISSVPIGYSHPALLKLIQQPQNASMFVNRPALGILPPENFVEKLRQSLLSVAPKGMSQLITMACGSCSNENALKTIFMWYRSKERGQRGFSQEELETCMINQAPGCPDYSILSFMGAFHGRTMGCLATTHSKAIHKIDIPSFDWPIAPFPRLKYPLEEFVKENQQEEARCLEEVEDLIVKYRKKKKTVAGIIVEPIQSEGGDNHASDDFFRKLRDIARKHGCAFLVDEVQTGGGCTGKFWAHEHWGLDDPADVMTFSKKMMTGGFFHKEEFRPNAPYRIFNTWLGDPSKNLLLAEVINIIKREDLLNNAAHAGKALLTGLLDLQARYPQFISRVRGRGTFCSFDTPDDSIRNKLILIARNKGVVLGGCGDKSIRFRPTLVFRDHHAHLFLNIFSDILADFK

- Activity [1]: inactive
- Activity [2]: 58%
Compound: N[C@H]1C[C@@H](C(=O)O)CC1=C(Cl)Cl

— ChEMBL document CHEMBL1139127, “Structural modifications of (1S,3S)-3-amino-4-difluoromethylenecyclopentanecarboxylic acid, a potent irreversible inhibitor of GABA aminotransferase” (Bioorg Med Chem Lett, 2007)
